Laboratory results as given in EP4137133A1, “CRYSTALLINE FORM OF AVACOPAN” (Sandoz AG, priority 2021, dated 2023).

What was measured:
[1] = Powder dissolution of crystalline avacopan forms in 0.1N HCl; assay type: physicochemical; settings: 37°C; for Concentration: HPLC 243 nm
Experimental: Powder dissolution experiments were carried out in 0.1N HCl at 37°C for the crystalline form of avacopan disclosed in WO 2021/092292 A1 and the crystalline Form HyA of avacopan of the present invention. Particle sizes of the forms were kept as similar as possible to allow for proper comparison. The respective concentrations were determined by HPLC at a wavelength of 243 nm.

[2] = Gravimetric moisture sorption (GMS); assay type: physicochemical; settings: 25 ± 0.1 °C
Experimental: Moisture sorption isotherms were recorded with an SPSx-1µ moisture sorption analyzer (ProUmid, Ulm) together with other samples. The measurement cycle was started at ambient relative humidity (RH) of 40%. RH was then decreased to 5% in 5% steps, followed by a further decrease to 3% and to 0%. […] Finally, RH was increased to ambient relative humidity of […] in 5% steps. The time per step was set to a minimum of 2 hours and a maximum of 6 hours. If an equilibrium condition with a constant mass of ± 0.01% within 1 hour was reached before the maximum time for all examined samples the sequential humidity step was applied before the maximum time of 6 hours. If no equilibrium was achieved the consecutive humidity step was applied after the maximum time of 6 hours. The temperature was 25 ± 0.1 °C.

Q: Which “Concentration” value ([1]; time 0 h) does the source give for `Cc1ccc(NC(=O)[C@H]2CCCN(C(=O)c3c(C)cccc3F)[C@H]2c2ccc(NC3CCCC3)cc2)cc1C(F)(F)F` [Form HyA, (2R,3S)-2-(4-(cyclopentylamino)phenyl)-1-(2-fluoro-6-methylbenzoyl)-N-(4-methyl-3-(trifluoromethyl)phenyl)piperidine-3-carboxamide] here?
A: Its value is 0 ng/mL.

Q: What about the “Concentration” value ([1]; time 0.25 h, listed as Form HyA of present invention) of the same compound?
A: The value was 72000 ng/mL.

Q: What about the “Concentration” value ([1]; time 0.5 h, listed as Form HyA of present invention) of the same compound?
A: The value was 68000 ng/mL.

Q: And the “Concentration” value ([1]; time 0.75 h, listed as Form HyA of present invention)?
A: Its value is 60000 ng/mL.

Q: What about the “Concentration” value ([1]; time 1 h, listed as Form HyA of present invention) of the same compound?
A: The value was 52000 ng/mL.

Q: What about the “Concentration” value ([1]; time 1.25 h, listed as Form HyA of present invention) of the same compound?
A: The value was 43000 ng/mL.

Q: And the “Concentration” value ([1]; time 1.5 h, listed as Form HyA of present invention)?
A: Its value is 40000 ng/mL.

Q: What about the “Concentration” value ([1]; time 1.75 h, listed as Form HyA of present invention) of the same compound?
A: Its value is 36000 ng/mL.

Q: And the “Concentration” value ([1]; time 2 h, listed as Form HyA of present invention)?
A: Its value is 35000 ng/mL.

Q: What about the “solubility in 0.1N HCl compared to the crystalline form of avacopan disclosed in WO 2021/092292 A1” value ([1]; whole range from 15 minutes to 2 hours) of the same compound?
A: The value was “significantly increased solubility”.

Q: And the “mass change (0-15% RH)” value ([2]; GMS, 0-15% RH)?
A: The value was 2.2 w-%.

Q: And the “mass change (0-90%RH)” value ([2]; GMS, 0-90% RH)?
A: Its value is 3.2 w-%.

Q: And the “mass change (15-90%)” value ([2]; GMS, 15-90% RH)?
A: Its value is 1.0 w-%.

Q: And the hygroscopicity ([2]; GMS, range of 15-90% RH)?
A: The hygroscopicity was “slightly hygroscopic”.

Q: And the mass change ([2]; GMS, range of 15-90% RH)?
A: The mass change was 1.0%.

Q: What about the water released ([2]; GMS, very dry conditions, below 15-0% RH) of the same compound?
A: The water released was 2.2%.

Q: And the “PXRD after the GMS experiment (physical stability)” value ([2]; after sorption/desorption cycles 0-90% RH)?
A: Its value is “still shows the same PXRD”.

Q: With `Cc1ccc(NC(=O)[C@H]2CCCN(C(=O)c3c(C)cccc3F)[C@H]2c2ccc(NC3CCCC3)cc2)cc1C(F)(F)F` [Crystalline Form of WO 2021/092292 A1, (2R,3S)-2-(4-(cyclopentylamino)phenyl)-1-(2-fluoro-6-methylbenzoyl)-N-(4-methyl-3-(trifluoromethyl)phenyl)piperidine-3-carboxamide, reference compound] as the compound, how does the “Concentration” value ([1]; time 0.25 h) read?
A: The value was 4000 ng/mL.

Q: What about the “Concentration” value ([1]; time 0.5 h) of the same compound?
A: The value was 6000 ng/mL.

Q: What about the “Concentration” value ([1]; time 0.75 h) of the same compound?
A: The value was 6000 ng/mL.

Q: What about the “Concentration” value ([1]; time 1 h) of the same compound?
A: Its value is 7000 ng/mL.

Q: And the “Concentration” value ([1]; time 1.25 h)?
A: The value was 7000 ng/mL.

Q: What about the “Concentration” value ([1]; time 1.5 h) of the same compound?
A: The value was 8000 ng/mL.

Q: And the “Concentration” value ([1]; time 1.75 h)?
A: The value was 8000 ng/mL.

Q: What about the “Concentration” value ([1]; time 2 h) of the same compound?
A: Its value is 8000 ng/mL.
